Reference: the NIST ThermoML archive (doi:10.1021/je0342419)

Assays:
[1] = 300 kPa, Fluid (supercritical or subcritical phases)
[2] = xn = mol fraction of the nth substance listed; settings: 300 kPa, Fluid (supercritical or subcritical phases)

O=C=O [carbon dioxide]
[1]
Settings | viscosity [mPa·s]
500 K | 0.0236
800 K | 0.0356
1100 K | 0.0452

O=C=O [carbon dioxide] + [HH]
[2], x2 = 0
Settings | viscosity [mPa·s]
500 K | 0.0236
800 K | 0.0356
1100 K | 0.0452

[HH] [hydrogen]
[1]
Settings | viscosity [mPa·s]
500 K | 0.0129
800 K | 0.0179
1100 K | 0.0226

[HH] [hydrogen] + O=C=O
viscosity [mPa·s], [2]
Settings | x1 = 0.15 | x1 = 0.3 | x1 = 0.5 | x1 = 0.7 | x1 = 0.85 | x1 = 1
500 K | 0.0238 | 0.0241 | 0.0236 | 0.0215 | 0.0192 | 0.0129
800 K | 0.0351 | 0.0346 | 0.0336 | 0.0303 | 0.0269 | 0.0179
1100 K | 0.0438 | 0.0431 | 0.0422 | 0.0403 | 0.0346 | 0.0226
